# Assay results reported in patent US20220298163A1, “BTK INHIBITORS WITH IMPROVED DUAL SELECTIVITY” (BEIGENE, LTD., priority 2017, published 2022).
# Assays:
# [1] = Rat pharmacokinetic study; format: in vivo, Male Sprague Dawley rats; conditions: for AUC(0-inf) / bioavailability / clearance / Cmax: male, Sprague Dawley, plasma, rat; for AUC(0-inf): IV 1 mg·kg^−1 / PO 5 mg·kg^−1 study, route not given; for bioavailability: oral bioavailability, PO 5 mg·kg^−1 vs IV 1 mg·kg^−1; for clearance: single IV 1 mg·kg^−1; for Cmax: single PO 5 mg·kg^−1
# [2] = biological target: T1, phosphorylated Btk at Tyr223 (Homo sapiens, UniProt Q06187); test: Btk pY223 cellular assay (HTRF, Ramos cells); format: cell-based; conditions: compound 3 hours, pervanadate or Na3VO4 stimulation, read-out: IC50 (nM) in cell Btk pY223
# T1 construct: determine the endogenous levels of phosphorylated Btk at Tyr223; endogenous in cells; host or cells: Ramos cells (CRL-1596, ATCC)
# EGFR = EGFR (Homo sapiens, UniProt P00533); test: Biochemical kinase selectivity: IC50 determination of EGFR; conditions: TR-FRET, 20 μM ATP
# Tec = biological target: T2, Tec (Homo sapiens, UniProt P42680); test: Biochemical kinase selectivity: IC50 determination of Tec; conditions: TR-FRET, 280 μM ATP
# T2 sequence (P42680 1-631): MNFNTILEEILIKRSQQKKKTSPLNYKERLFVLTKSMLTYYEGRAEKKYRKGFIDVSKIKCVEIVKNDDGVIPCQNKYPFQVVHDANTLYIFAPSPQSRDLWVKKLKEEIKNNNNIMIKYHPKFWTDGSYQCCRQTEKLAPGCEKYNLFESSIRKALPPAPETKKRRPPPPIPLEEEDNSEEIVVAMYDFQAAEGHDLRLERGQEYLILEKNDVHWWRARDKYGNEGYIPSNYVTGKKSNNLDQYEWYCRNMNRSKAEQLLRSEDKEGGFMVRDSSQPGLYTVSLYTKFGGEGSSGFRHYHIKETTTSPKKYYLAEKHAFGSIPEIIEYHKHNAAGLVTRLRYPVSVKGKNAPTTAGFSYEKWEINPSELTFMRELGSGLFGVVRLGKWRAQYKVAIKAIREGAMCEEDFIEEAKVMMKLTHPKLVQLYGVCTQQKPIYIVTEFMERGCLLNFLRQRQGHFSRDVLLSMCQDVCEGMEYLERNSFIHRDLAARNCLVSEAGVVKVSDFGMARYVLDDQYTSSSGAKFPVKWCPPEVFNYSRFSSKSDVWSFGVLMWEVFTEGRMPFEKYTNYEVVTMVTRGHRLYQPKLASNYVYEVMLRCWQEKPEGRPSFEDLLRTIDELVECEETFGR
# [3] = other Btk inhibitors, meeting abstract 2016; cited from earlier work
# T1 sequence (Q06187 whole entry): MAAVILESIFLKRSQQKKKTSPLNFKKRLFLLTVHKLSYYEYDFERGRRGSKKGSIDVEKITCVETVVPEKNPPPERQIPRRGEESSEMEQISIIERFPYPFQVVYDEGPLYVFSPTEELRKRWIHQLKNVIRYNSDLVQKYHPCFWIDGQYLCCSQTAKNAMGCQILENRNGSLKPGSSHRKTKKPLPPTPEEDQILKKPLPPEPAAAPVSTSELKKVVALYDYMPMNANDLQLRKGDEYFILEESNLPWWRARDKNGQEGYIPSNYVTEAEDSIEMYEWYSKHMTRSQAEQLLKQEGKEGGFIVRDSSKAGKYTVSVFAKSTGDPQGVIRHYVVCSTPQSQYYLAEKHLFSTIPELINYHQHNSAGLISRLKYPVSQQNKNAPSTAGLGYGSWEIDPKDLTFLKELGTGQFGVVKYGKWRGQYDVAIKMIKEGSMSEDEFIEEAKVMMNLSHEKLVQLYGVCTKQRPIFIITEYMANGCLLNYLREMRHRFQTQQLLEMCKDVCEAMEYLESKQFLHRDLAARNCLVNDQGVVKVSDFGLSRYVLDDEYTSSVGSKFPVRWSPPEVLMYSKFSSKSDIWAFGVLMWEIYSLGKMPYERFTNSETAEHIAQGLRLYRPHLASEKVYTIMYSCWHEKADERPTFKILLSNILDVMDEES
# Chain of EGFR (P00533 25-1210): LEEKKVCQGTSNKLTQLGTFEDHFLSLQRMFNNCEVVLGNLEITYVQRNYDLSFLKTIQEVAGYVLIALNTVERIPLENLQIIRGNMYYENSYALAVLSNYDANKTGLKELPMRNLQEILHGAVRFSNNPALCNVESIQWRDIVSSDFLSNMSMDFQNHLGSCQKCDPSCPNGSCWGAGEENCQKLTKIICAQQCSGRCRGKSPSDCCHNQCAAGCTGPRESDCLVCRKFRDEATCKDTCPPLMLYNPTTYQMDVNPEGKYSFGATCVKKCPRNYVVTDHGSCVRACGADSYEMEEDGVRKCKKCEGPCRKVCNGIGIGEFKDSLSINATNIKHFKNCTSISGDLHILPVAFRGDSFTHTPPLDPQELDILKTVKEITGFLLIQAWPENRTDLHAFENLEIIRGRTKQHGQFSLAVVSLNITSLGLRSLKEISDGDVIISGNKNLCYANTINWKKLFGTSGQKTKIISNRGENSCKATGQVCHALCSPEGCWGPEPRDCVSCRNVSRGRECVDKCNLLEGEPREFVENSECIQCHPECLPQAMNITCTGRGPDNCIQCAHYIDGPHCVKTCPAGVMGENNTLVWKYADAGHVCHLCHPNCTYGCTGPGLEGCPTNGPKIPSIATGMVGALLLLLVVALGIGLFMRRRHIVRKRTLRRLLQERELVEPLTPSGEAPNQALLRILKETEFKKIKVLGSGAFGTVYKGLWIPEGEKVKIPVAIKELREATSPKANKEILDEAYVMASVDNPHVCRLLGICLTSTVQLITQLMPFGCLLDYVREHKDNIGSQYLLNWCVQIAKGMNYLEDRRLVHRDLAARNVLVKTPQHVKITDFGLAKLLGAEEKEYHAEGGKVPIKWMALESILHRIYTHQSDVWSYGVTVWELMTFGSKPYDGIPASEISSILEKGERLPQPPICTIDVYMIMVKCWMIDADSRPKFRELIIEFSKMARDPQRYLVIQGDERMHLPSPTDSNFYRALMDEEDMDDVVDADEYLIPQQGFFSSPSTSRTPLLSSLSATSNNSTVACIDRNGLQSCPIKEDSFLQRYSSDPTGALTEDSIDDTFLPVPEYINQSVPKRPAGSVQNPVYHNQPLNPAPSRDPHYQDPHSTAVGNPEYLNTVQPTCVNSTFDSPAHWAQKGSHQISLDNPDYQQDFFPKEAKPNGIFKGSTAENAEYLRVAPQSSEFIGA
AUC(0-inf) [1],bioavailability [1],clearance [1],Cmax [1],Structure (SMILES),bleeding adverse event (in words) [3],also measured
1710 ng·h/mL,73.7%,42.8 mL/min/kg,859 ng/mL,"C=CC(=O)N1CCC(C2CCNc3c(C(N)=O)c(-c4cc(OC)c(C5CC5)c(OC)c4)nn32)CC1 (single isomer, unassigned) [Example A2a, (S or R)-7-(1-acryloylpiperidin-4-yl)-2-(4-cyclopropyl-3,5-dimethoxyphenyl)-4,5,6,7-tetrahydropyrazolo[1,5-a]pyrimidine-3-carboxamide]",,"plasma clearance, Cmax, AUC and oral bioavailability compared to compound 167* ([1]; rat PK study, Table IV): lower plasma clearance values, higher Cmax, AUC and oral bioavailability"
65.1 ng·h/mL,11.8%,152 mL/min/kg,60.4 ng/mL,C=CC(=O)Nc1ccccc1C1CCNc2c(C(N)=O)c(-c3cc(OC)c(OC)c(OC)c3)nn21 (stereo not drawn) [167^#],,IC50 [2]: 83.5 nM; IC50 (EGFR): 9.5 nM; IC50 (Tec): 157 nM
,,,,CC#CC(=O)N1CCC[C@H]1c1nc(-c2ccc(C(=O)Nc3ccccn3)cc2)c2c(N)nccn12 [ACP-196],Bleeding as a common adverse event (AE),
,,,,C=CC(=O)N1CCC([C@@H]2CCNc3c(C(N)=O)c(-c4ccc(Oc5ccccc5)cc4)nn32)CC1 [BGB-3111],Bleeding as a common adverse event (AE),
,,,,CC#CC(=O)N1CC[C@@H](n2c(=O)n(-c3ccc(Oc4ccccc4)cc3)c3c(N)ncnc32)C1 [ONO-4059],Bleeding as a common adverse event (AE),
